This experiment has as its system differentiating wild-type Th2 cells. The experiment in a line: Th2 cell differentiation and commitment in Th2-polarizing culture with non-specific SETDB1 inhibitors; cytokine production by intracellular staining and flow cytometry. The note with it: naïve CD4 T cells, 6 days in Th2-polarizing conditions; 100 nM Mithramycine A for first 4 hours, 1 nM DZNep for first 24 hours; no pro-Th1 signal; vs DMSO; PMA/Ionomycine restimulation.

Experimental: At the end of the culture, cytokine production was assessed by flow cytometry following T cell restimulation with PMA/Ionomycine in the presence of Monensin and intracellular staining.
Spleen and lymph nodes (mesenteric, inguinal, axillary, brachial and cervical) were collected and digested with Liberase TM and DNAse I (Sigma). Single-cell suspensions were then pooled and depleted of erythrocytes by osmotic shock (Red Blood Cell Lysis buffer, Sigma). […] Naïve CD4 T cells, defined as CD4+CD25-CD62LhighCD44low, were labeled with fluorochrome-conjugated monoclonal antibodies specific for CD4 (GK1.5, BD Biosciences), CD25 (PC61, BD Biosciences), CD62L (MEL14, Thermo Fischer Scientific) and CD44 (IM7, BD Biosciences), and purified from the enriched fraction of CD4 T cells by fluorescence-activated cell sorting (FACS Aria, BD Biosciences). […]
For intracellular cytokine staining, cells were first stimulated at 37° C. with 20 ng/mL phorbol 12-myristate 13-acetate (Millipore) and 1 μg/mL ionomycin (Millipore) for 5 hours in the presence of GolgiStop™ (BD Biosciences). […] Flow cytometry was performed by using a LSRII Fortessa cytometer (BD Biosciences) or MACSQuant analyzer 10 (Myltenyi) and the data were analyzed by using FlowJo software (Tree Star). […]

`Nc1nccc2c1ncn2[C@@H]1C=C(CO)[C@@H](O)[C@H]1O` [DZNEP, 3-Deazaneplanocin A]: the “IFN-γ production by Th2 cells (frequency of IFNg-producing cells)” value was “start to produce pro-Th1 factor, in particular IFN-γ”.
